In this test the test system is CD2F1 mice, L1210 leukemia ip, survival T/C. The test is described as follows: NCI In Vivo Anticancer Drug Screen. Data for tumor model L1210 Leukemia (intraperitoneal) in CD2F1 (CDF1) mice. As to conditions: higher = longer survival. An outline of the steps: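 In this screen, transplantable tumors were grown in mice given either the compound or its vehicle. Results were expressed as the treated measurement relative to the control measurement.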

Where [1] appears, read: endpoint: mean survival time, dose: 100.0 mg/kg/injection, schedule: Q01DX009 (ip), vehicle: saline with Tween-80.
Setting [2] is: endpoint: mean survival time, dose: 200.0 mg/kg/injection, schedule: Q01DX009 (ip), vehicle: saline with Tween-80.
[3] abbreviates: endpoint: mean survival time, dose: 400.0 mg/kg/injection, schedule: Q01DX009 (ip), vehicle: saline with Tween-80.
Setting [4] is: endpoint: mean survival time, dose: 100.0 mg/kg/injection, schedule: Q04DX003 (ip), vehicle: saline with Tween-80.
[5] abbreviates: endpoint: mean survival time, dose: 200.0 mg/kg/injection, schedule: Q04DX003 (ip), vehicle: saline with Tween-80.
Setting [6] is: endpoint: mean survival time, dose: 400.0 mg/kg/injection, schedule: Q04DX003 (ip), vehicle: saline with Tween-80.
Where [7] appears, read: endpoint: mean survival time, dose: 100.0 mg/kg/injection, schedule: Q04DX002 (ip), vehicle: saline with Tween-80.

Structures are written as SMILES. Values joined by “and” are separate entries in the source; they are usually repeats but may differ in a detail not shown here. Equal entries are not always repeated. Toxic doses and inconclusive results are not listed.

The source of these data is PubChem BioAssay AID256 (DTP/NCI, 2004).

On to `CN(C)CCC(=O)c1ccccc1`, for which the T/C (endpoint: mean survival time, dose: 25.0 mg/kg/injection, schedule: Q01DX009 (ip), vehicle: saline) was 106 % of control; the T/C (endpoint: mean survival time, dose: 50.0 mg/kg/injection, schedule: Q01DX009 (ip), vehicle: saline) is 95 % of control; the T/C (endpoint: mean survival time, dose: 100.0 mg/kg/injection, schedule: Q01DX009 (ip), vehicle: saline) was 106 % of control.
Take `CCCCCCCCCCCC(=O)c1ccccc1`: the T/C was 102 % of control under setting [1]; 95 % of control (endpoint: mean survival time, dose: 100.0 mg/kg/injection, schedule: Q04DX003 (ip), vehicle: other); 102 % of control under setting [2]; 97 % of control (endpoint: mean survival time, dose: 200.0 mg/kg/injection, schedule: Q04DX003 (ip), vehicle: other); 98 % of control under setting [3]; 92 % of control (endpoint: mean survival time, dose: 400.0 mg/kg/injection, schedule: Q04DX003 (ip), vehicle: other).
As to `CC1(C(Cl)(Cl)Cl)C=CC(=O)C=C1`, the T/C by setting is: (endpoint: mean survival time, dose: 50.0 mg/kg/injection, schedule: Q04DX003 (ip), vehicle: saline with Tween-80) 101 % of control; under setting [4], 101 % of control; under setting [5], 97 % of control.
For the molecule `CC(=O)OCC1OC(n2nc(C#N)c(C#N)n2)C(OC(C)=O)C1OC(C)=O` (stereo unspecified), the T/C runs as follows: (endpoint: mean survival time, dose: 12.5 mg/kg/injection, schedule: Q01DX005 (ip), vehicle: distilled water + Tween-80) 106 % of control; (endpoint: mean survival time, dose: 25.0 mg/kg/injection, schedule: Q01DX005 (ip), vehicle: distilled water + Tween-80) 101 % of control and 106 % of control; (endpoint: mean survival time, dose: 50.0 mg/kg/injection, schedule: Q01DX005 (ip), vehicle: distilled water + Tween-80) 98 % of control and 112 % of control; (endpoint: mean survival time, dose: 100.0 mg/kg/injection, schedule: Q01DX005 (ip), vehicle: distilled water + Tween-80) 115 % of control and 104 % of control; (endpoint: mean survival time, dose: 200.0 mg/kg/injection, schedule: Q01DX005 (ip), vehicle: distilled water + Tween-80) 121 % of control and 104 % of control; (endpoint: mean survival time, dose: 400.0 mg/kg/injection, schedule: Q01DX005 (ip), vehicle: distilled water + Tween-80) 106 % of control.
For `O=C1Cc2c(nc[nH]c2=O)N1`, the T/C was 101 % of control (endpoint: median survival time, dose: 50.0 mg/kg/injection, schedule: Q01DX005 (ip), vehicle: saline); 97 % of control (endpoint: median survival time, dose: 100.0 mg/kg/injection, schedule: Q01DX005 (ip), vehicle: saline); 92 % of control (endpoint: median survival time, dose: 200.0 mg/kg/injection, schedule: Q01DX005 (ip), vehicle: saline).
`Nc1cc2c(c[n+](CCCCCCCC[n+]3cc4c5ccccc5c(N)cc4c4ccccc43)c3ccccc23)c2ccccc12`: the T/C (endpoint: mean survival time, dose: 0.78 mg/kg/injection, schedule: Q04DX003 (ip), vehicle: other) was 114 % of control; the T/C (endpoint: mean survival time, dose: 1.56 mg/kg/injection, schedule: Q04DX003 (ip), vehicle: other) is 157 % of control; the T/C (endpoint: mean survival time, dose: 3.13 mg/kg/injection, schedule: Q04DX003 (ip), vehicle: other) was 124 % of control; the T/C (endpoint: mean survival time, dose: 12.5 mg/kg/injection, schedule: Q04DX003 (ip), vehicle: other) was 157 % of control; the T/C (endpoint: mean survival time, dose: 50.0 mg/kg/injection, schedule: Q04DX003 (ip), vehicle: other) was 124 % of control and 103 % of control.
Take `CSc1nc2cc(S(=O)(=O)N3CCCCC3)ccc2s1`: the T/C was 93 % of control under setting [1]; 89 % of control under setting [4]; 95 % of control under setting [2]; 89 % of control under setting [5]; 93 % of control under setting [3]; 86 % of control under setting [6].
Turning to `N#CCCOC1CCCCC1`, the T/C runs as follows: under setting [4], 98 % of control; under setting [5], 93 % of control; under setting [6], 93 % of control.
Consider `CCC1NC(=O)C(NC(=O)c2ncccc2O)C(C)OC(=O)C(c2ccccc2)NC(=O)C2CC(=O)CCN2C(=O)C(Cc2ccccc2)N(C)C(=O)C2CCCN2C1=O` (stereo unspecified), for which the T/C was 108 % of control under setting [7] and 108 % of control (endpoint: mean survival time, dose: 200.0 mg/kg/injection, schedule: Q04DX002 (ip), vehicle: saline with Tween-80).
Regarding `COc1cccc2c1C(=O)c1c(O)c3c(c(O)c1C2=O)C[C@@](O)(/C(CO)=N/NC(=O)c1ccc(Cl)c(Cl)c1)C[C@@H]3OC1CC(N)C(O)C(C)O1` (stereo partly specified), the T/C is 86 % of control (endpoint: mean survival time, dose: 1.0 mg/kg/injection, schedule: Q01DX009 (ip), vehicle: water); 116 % of control and 89 % of control (endpoint: mean survival time, dose: 2.0 mg/kg/injection, schedule: Q01DX009 (ip), vehicle: water); 92 % of control (endpoint: mean survival time, dose: 4.0 mg/kg/injection, schedule: Q01DX009 (ip), vehicle: water); 92 % of control (endpoint: mean survival time, dose: 8.0 mg/kg/injection, schedule: Q01DX009 (ip), vehicle: water); 252 % of control and 97 % of control (endpoint: mean survival time, dose: 16.0 mg/kg/injection, schedule: Q01DX009 (ip), vehicle: water); 113 % of control and 111 % of control (endpoint: mean survival time, dose: 32.0 mg/kg/injection, schedule: Q01DX009 (ip), vehicle: water).
Regarding `NC1=C(Cl)C(=O)C(N)=C(Cl)C1=O`, the T/C by setting is: under setting [4], 101 % of control; under setting [5], 101 % of control.
For `COc1ccc(OC)c(C)c1`, the T/C by setting is: under setting [1], 105 % of control; under setting [2], 107 % of control; under setting [3], 104 % of control.
With `CC12CCC(C(=O)C1)C1(C)CCCC(=O)C21` (stereo unspecified), the T/C (endpoint: mean survival time, dose: 75.0 mg/kg/injection, schedule: Q01DX001 (ip), vehicle: other) is 97 % of control.
Turning to `COc1cc2ccc(CC(=S)N3CCOCC3)cc2cc1OC`, the T/C is, setting by setting: under setting [1], 98 % of control; under setting [4], 104 % of control; under setting [2], 93 % of control; under setting [5], 95 % of control; under setting [3], 96 % of control.
For the molecule `CCCCCC1SC1CC1SC1CCCCCCCC(=O)N(CCCC)CCCC` (stereo unspecified), the T/C runs as follows: (endpoint: mean survival time, dose: 75.0 mg/kg/injection, schedule: Q04DX003 (ip), vehicle: saline) 98 % of control; (endpoint: mean survival time, dose: 150.0 mg/kg/injection, schedule: Q04DX003 (ip), vehicle: saline) 107 % of control; (endpoint: mean survival time, dose: 300.0 mg/kg/injection, schedule: Q04DX003 (ip), vehicle: saline) 97 % of control.
On to `CCCCCCCCCCCCCCCC(=O)N(C/C=C/CN(C(=O)CCCCCCCCCCCCCCC)C(C)CCCN(CC)CC)C(C)CCCN(CC)CC` (stereo unspecified), for which the T/C is 97 % of control (endpoint: mean survival time, dose: 12.5 mg/kg/injection, schedule: Q01DX009 (ip), vehicle: other) and 94 % of control (endpoint: mean survival time, dose: 25.0 mg/kg/injection, schedule: Q01DX009 (ip), vehicle: other).
With `Nc1nc(Cl)ncc1C1OC(CO)C(O)C1O` (stereo unspecified), the T/C runs as follows: (endpoint: mean survival time, dose: 12.5 mg/kg/injection, schedule: Q01DX005 (ip), vehicle: water) 91 % of control; (endpoint: mean survival time, dose: 25.0 mg/kg/injection, schedule: Q01DX005 (ip), vehicle: water) 95 % of control; (endpoint: mean survival time, dose: 50.0 mg/kg/injection, schedule: Q01DX005 (ip), vehicle: water) 91 % of control; (endpoint: mean survival time, dose: 100.0 mg/kg/injection, schedule: Q01DX005 (ip), vehicle: water) 87 % of control; (endpoint: mean survival time, dose: 200.0 mg/kg/injection, schedule: Q01DX005 (ip), vehicle: water) 98 % of control.
In the case of `CC(C)C(=O)Nc1cccc(Cl)c1`, the T/C by setting is: under setting [4], 97 % of control; under setting [5], 97 % of control; under setting [6], 94 % of control.
Turning to `N#C/C(=C\C1CCCCC1Cl)C1CCC([N+](=O)[O-])CC1` (stereo unspecified), the T/C reads like this: under setting [7], 91 % of control; (endpoint: mean survival time, dose: 400.0 mg/kg/injection, schedule: Q04DX002 (ip), vehicle: saline with Tween-80) 87 % of control.
For `O=[N+]([O-])O.[NH-]C1CCCCC1[NH-].[NH-]C1CCCCC1[NH-].[OH-].[OH-].[Pt+4].[Pt+4]` (stereo unspecified), the T/C (endpoint: mean survival time, dose: 1.25 mg/kg/injection, schedule: Q04DX003 (ip), vehicle: water) is 110 % of control.
In the case of `COc1ccc(OC)c(NC(=O)Oc2ccc(C(=O)OCc3ccccc3)cc2)c1`, the T/C was 101 % of control under setting [1], 104 % of control under setting [2] and 104 % of control under setting [3].
In the case of `COc1cc(OC)c(NC(=O)NCc2ccco2)cc1Cl`, the T/C is, setting by setting: (endpoint: mean survival time, dose: 12.5 mg/kg/injection, schedule: Q01DX009 (ip), vehicle: saline with Tween-80) 103 % of control; (endpoint: mean survival time, dose: 25.0 mg/kg/injection, schedule: Q01DX009 (ip), vehicle: saline with Tween-80) 95 % of control; (endpoint: mean survival time, dose: 50.0 mg/kg/injection, schedule: Q01DX009 (ip), vehicle: saline with Tween-80) 88 % of control and 98 % of control; under setting [2], 92 % of control.
As to `NC1=NC(c2ccccc2)N(c2cccc(Cl)c2)C(N)=N1` (stereo unspecified), the T/C was 107 % of control (endpoint: mean survival time, dose: 25.0 mg/kg/injection, schedule: Q01DX001 (ip), vehicle: saline); 104 % of control (endpoint: mean survival time, dose: 50.0 mg/kg/injection, schedule: Q01DX001 (ip), vehicle: saline); 101 % of control (endpoint: mean survival time, dose: 100.0 mg/kg/injection, schedule: Q01DX001 (ip), vehicle: saline).
Turning to `COC(=O)C(=[N+]=[N-])C(=O)OC`, the T/C was 93 % of control under setting [1]; 101 % of control under setting [4]; 93 % of control under setting [2]; 101 % of control under setting [5]; 91 % of control under setting [3]; 98 % of control under setting [6].
